# Legend:
# in vitro [1] = conditions: human, liver microsomes
# physchem = conditions: octanol/water
# in vitro [2] = conditions: dog, MDCK
Compound,"microsomal CLint at […], 1 µM (in vitro [1]) [µL/min/mg]",logD (physchem),Papp (in vitro [2]) [×10⁻⁶ cm/s]
C=CC(=O)N[C@@H]1CN(c2nc(Nc3cn(C)nc3CC)c3ncn(C(C)C)c3n2)C[C@H]1F,81,3.5,
CC(C)C(CO)Nc1nc(Nc2ccc(N3CCNCC3)cc2)c2ncn(C(C)C)c2n1 (racemic),,,1.9

# — ChEMBL document CHEMBL4177539, “Discovery of N-((3R,4R)-4-Fluoro-1-(6-((3-methoxy-1-methyl-1H-pyrazol-4-yl)amino)-9-methyl-9H-purin-2-yl)pyrrolidine-3-yl)acrylamide (PF-06747775) through Structure-Based Drug Design: A High Affinity Irreversible Inhibitor Targeting Oncogenic EGFR Mutants with Selectivity over Wild-Type EGFR” (J Med Chem, 2017)
